This note sets out measurements from patent US20220388953A1, “COMPOUNDS WITH ANTIMICROBIAL ACTIVITY” (The Hong Kong Polytechnic University, priority 2018, published 2022).

≈ marks a conversion by molar mass, not a printed value. Read-outs that look alike come from different tables or passages of the source.

Series [1] relates to Streptococcus pneumoniae (Klein) Chester (ATCC 49619). In words: Antimicrobial assay, broth microdilution (CLSI), MIC. The class given is cell-based. As to the method: C3 derivatives were synthesized and antimicrobial activity measured against Streptococcus pneumoniae (MIC, minimum inhibitory concentration).
Bacterial Strains was used in this study is Streptococcus pneumoniae (Klein) Chester (ATCC® 49619™)
The antimicrobial activity of the compounds was determined by broth microdilution according to the Clinical & Laboratory Standards Institute (CLSI) guidelines. The test medium was cation-adjusted Mueller-Hinton broth (MH). Serial two-fold dilutions were performed for the tested chemicals starting from 256 μg/mL to 0.5 μg/mL, and the bacterial cell inoculum was adjusted to approximately 5×10^5 CFU/mL. Results were taken after 20 h of incubation at 37° C. The MIC was defined as the lowest concentration of antibiotic with no visible growth. Experiments were performed in duplicates.
For orientation: In broth dilution the organism is exposed to a series of concentrations in liquid medium.

[2] abbreviates: ATCC49619, Table 1, Streptococcus pneumoniae ATCC 49619, 20 h at 37° C., read-out: MIC.
Setting [3] is: Streptococcus pneumoniae, ATCC49619, 20 h.
The mark [4] stands for this setting: ATCC49619, Table 3, Streptococcus pneumoniae ATCC 49619, 20 h at 37° C., read-out: MIC.

For `O=C(O)c1ccccc1C(=O)c1ccc(Nc2cccc(Cl)c2)c([N+](=O)[O-])c1`, the melting point – broadly, the temperature of the solid-liquid transition – is 159 to 161 °C. For `COc1ccccc1Sc1ccc(C(=O)c2ccccc2C(=O)O)cc1[N+](=O)[O-]` [C3-2, 2-(4-((2-Methoxyphenyl)thio)-3-nitrobenzoyl)benzoic Acid], the melting point lay within 209 to 211 °C. Further, the MIC (commonly the lowest concentration found to suppress growth) in series [1] (setting [2]) worked out at 128 µg/mL (≈ 313 µM). In turn, `O=C(O)c1ccccc1C(=O)c1ccc(Sc2ccccc2F)c([N+](=O)[O-])c1` [C3-3, 2-(4-((2-Fluorophenyl)thio)-3-nitrobenzoyl)benzoic Acid] gave a melting point of 175 to 176 °C. Moreover, the minimal inhibitory concentration (MIC) in series [1] (setting [2]) turned out to be 128 µg/mL (≈ 322 µM). For the compound `Nc1cccc(Sc2ccc(C(=O)c3ccccc3C(=O)O)cc2[N+](=O)[O-])c1` [C3-5, 2-(4-((3-Aminophenyl)thio)-3-nitrobenzoyl)benzoic Acid], the MIC in series [1] (setting [3]) came out at 64 µg/mL (≈ 162 µM). In series [1] (setting [3]), `Nc1ccc(Sc2ccc(C(=O)c3ccccc3C(=O)O)cc2[N+](=O)[O-])cc1` [C3-6, 2-(4-((4-Aminophenyl)thio)-3-nitrobenzoyl)benzoic Acid] had an MIC of 128 µg/mL (≈ 325 µM). `Nc1cc(Cl)ccc1Sc1ccc(C(=O)c2ccccc2C(=O)O)cc1[N+](=O)[O-]` [C3-10, 2-(4-((2-Amino-4-chlorophenyl)thio)-3-nitrobenzoyl)benzoic Acid]: the MIC in series [1] (setting [3]) amounted to 64 µg/mL (≈ 149 µM).

With `O=C(O)c1ccccc1C(=O)c1ccc(Sc2ccc(Cl)c(Cl)c2)c([N+](=O)[O-])c1` [C3-13, 2-(4-((3,4-Dichlorophenyl)thio)-3-nitrobenzoyl)benzoic Acid], the lowest concentration to inhibit growth in series [1] (setting [3]) (MIC) was 8 µg/mL (≈ 17.8 µM). In turn, `Nc1ccccc1Sc1ccc(C(=O)Nc2cccc(C(=O)O)c2)cc1[N+](=O)[O-]` [C3-026, 3-(4-((2-Aminophenyl)thio)-3-nitrobenzamido)benzoic Acid] came in with a melting point of 251 to 252 °C. The same measure, in the same setting: the same measure for `Nc1ccccc1Sc1ccc(CNc2cccc(C(=O)O)c2)cc1[N+](=O)[O-]` [C3-027, 3-((4-((2-Aminophenyl)thio)-3-nitrobenzyl)amino)benzoic Acid]: 105 to 107 °C.

Take `NC1CCCCC1Nc1ccc(C(=O)c2ccccc2C(=O)O)cc1[N+](=O)[O-]` (centres unmarked) [C3-28, 2-(4-((2-Aminocyclohexyl)amino)-3-nitrobenzoyl)benzoic Acid]: the MIC in series [1] (setting [2]) came out at 256 µg/mL (≈ 668 µM).

In the case of `Nc1ccccc1Sc1ccc(C2(O)NC(=O)c3ccccc32)cc1[N+](=O)[O-]` (centres unmarked) [C3-39], in series [1] (setting [4]), the MIC amounted to 32 µg/mL (≈ 81.3 µM). `Nc1ccccc1Sc1ccc(C2(O)c3ccccc3C(=O)N2c2ccccc2)cc1[N+](=O)[O-]` (centres unmarked) [C3-41] returned an MIC in series [1] (setting [3]) above 256 µg/mL. As to `NC(=O)c1cccc(N2C(=O)c3ccccc3C2(O)c2ccc(Sc3ccccc3N)c([N+](=O)[O-])c2)c1` (centres unmarked) [C3-42], the MIC in series [1] (setting [4]) came out at 32 µg/mL (≈ 62.4 µM). In series [1] (setting [3]), `Nc1ccccc1Sc1ccc(C2(O)c3ccccc3C(=O)N2c2cccc(C(=O)O)c2)cc1[N+](=O)[O-]` (centres unmarked) [C3-43] registered an MIC of 64 µg/mL (≈ 125 µM).

Consider `CC(C)(C)c1cccc(N2C(=O)c3ccccc3C2(O)c2ccc(Sc3ccccc3N)c([N+](=O)[O-])c2)c1` (centres unmarked) [C3-44], for which, in series [1] (setting [4]), the minimum inhibitory concentration (MIC) was above 256 µg/mL. On to `Cc1cccc(N2C(=O)c3ccccc3C2(O)c2ccc(Sc3ccccc3N)c([N+](=O)[O-])c2)c1` (centres unmarked) [C3-45], for which, in series [1] (setting [4]), the MIC was above 256 µg/mL. The compound `Nc1ccccc1Sc1ccc(C2(O)c3ccccc3C(=O)N2c2cccc(Cl)c2)cc1[N+](=O)[O-]` (centres unmarked) [C3-46] registered an MIC in series [1] (setting [3]) above 256 µg/mL. As to `O=C(O)c1cccc(NCc2ccc(Sc3ccc(Cl)c(Cl)c3)c([N+](=O)[O-])c2)c1` [C3-047, 3-((4-((3,4-Dichlorophenyl)thio)-3-nitrobenzyl)amino)benzoic Acid], the melting point was in the range of 224 to 226 °C. `Nc1ccccc1Sc1ccc(C2(O)c3ccccc3C(=O)N2Cc2ccccc2)cc1[N+](=O)[O-]` (centres unmarked) [C3-47]: the MIC in series [1] (setting [4]) was above 256 µg/mL. In the case of `O=C(O)c1cccc(NC(=O)c2ccc(Sc3ccc(Cl)c(Cl)c3)c([N+](=O)[O-])c2)c1` [C3-048, 3-(4-((3,4-Dichlorophenyl)thio)-3-nitrobenzamido)benzoic Acid], the melting point lay in the range of 280 to 282 °C. As for `Nc1ccccc1Sc1ccc(C2(O)c3ccccc3C(=O)N2Cc2ccccc2F)cc1[N+](=O)[O-]` (centres unmarked) [C3-48], the MIC in series [1] (setting [4]) is above 256 µg/mL. `Nc1ccccc1Sc1ccc(C(=O)Nc2ccc(C(=O)O)cc2)cc1[N+](=O)[O-]` [C3-056, 4-(4-((2-Aminophenyl)thio)-3-nitrobenzamido)benzoic Acid] came in with a melting point of 247 to 249 °C. On to `Nc1ccccc1Sc1ccc(C(=O)Nc2ccccc2C(=O)O)cc1[N+](=O)[O-]` [C3-057, 2-(4-((2-Aminophenyl)thio)-3-nitrobenzamido)benzoic Acid], for which the melting point was 259 to 261 °C. Same read-out and setting: the same measure for `Nc1ccccc1Sc1ccc(CNc2ccccc2C(=O)O)cc1[N+](=O)[O-]` [C3-065, 2-((4-((2-Aminophenyl)thio)-3-nitrobenzyl)amino)benzoic Acid]: 201 to 203 °C; for `NC(=O)c1cccc(NCc2ccc(Sc3ccc(Cl)c(Cl)c3)c([N+](=O)[O-])c2)c1` [C3-066, 3-((4-((3,4-Dichlorophenyl)thio)-3-nitrobenzyl)amino)benzamide]: 158 to 160 °C.

`O=C(O)c1ccc(Cl)c(NCc2ccc(Sc3ccc(Cl)c(Cl)c3)c([N+](=O)[O-])c2)c1` [C3-071, 4-Chloro-3-((4-((3,4-dichlorophenyl)thio)-3-nitrobenzyl)amino)benzoic Acid] came in with a melting point of 196 to 198 °C.

With `O=C(O)c1ccc(N2CCOCC2)c(NCc2ccc(Sc3ccc(Cl)c(Cl)c3)c([N+](=O)[O-])c2)c1` [C3-073, 3-((4-((3,4-Dichlorophenyl)thio)-3-nitrobenzyl)amino)-4-morpholinobenzoic Acid], the melting point is 147 to 149 °C. The same measure, in the same setting: next, `NS(=O)(=O)c1cccc(NCc2ccc(Sc3ccc(Cl)c(Cl)c3)c([N+](=O)[O-])c2)c1` [C3-074, 3-((4-((3,4-Dichlorophenyl)thio)-3-nitrobenzyl)amino)benzenesulfonamide]: 191 to 193 °C; `Cc1ccc(C(=O)O)cc1NCc1ccc(Sc2ccc(Cl)c(Cl)c2)c([N+](=O)[O-])c1` [C3-075, 3-((4-((3,4-Dichlorophenyl)thio)-3-nitrobenzyl)amino)-4-methylbenzoic Acid]: 222 to 224 °C; `O=C(Nc1ccccc1C(=O)O)c1ccc(Sc2ccc(Cl)c(Cl)c2)c([N+](=O)[O-])c1` [C3-077, 2-(4-((3,4-Dichlorophenyl)thio)-3-nitrobenzamido)benzoic Acid]: 279 to 281 °C. Consider `O=C(O)c1ccc(Br)c(NCc2ccc(Sc3ccc(Cl)c(Cl)c3)c([N+](=O)[O-])c2)c1` [C3-078, 4-Bromo-3-((4-((3,4-dichlorophenyl)thio)-3-nitrobenzyl)amino)benzoic Acid], for which the melting point is 231 to 233 °C.

The compound `O=C(O)c1cc(NCc2ccc(Sc3ccc(Cl)c(Cl)c3)c([N+](=O)[O-])c2)ccc1Cl` [C3-079, 2-Chloro-5-((4-((3,4-dichlorophenyl)thio)-3-nitrobenzyl)amino)benzoic Acid] had a melting point of 148 to 150 °C. `O=[N+]([O-])c1cc(CNc2cccc(CO)c2)ccc1Sc1ccc(Cl)c(Cl)c1` [C3-080, (3-((4-((3,4-Dichlorophenyl)thio)-3-nitrobenzyl)amino)phenyl)methanol]: the melting point was 118 to 120 °C.

Compound `O=C(O)c1ccccc1NCc1ccc(Sc2ccc(Cl)c(Cl)c2)c([N+](=O)[O-])c1` [C3-081, 2-((4-((3,4-Dichlorophenyl)thio)-3-nitrobenzyl)amino)benzoic Acid] yielded a melting point of 171 to 173 °C.

In turn, `O=C(O)c1ccc(F)c(NCc2ccc(Sc3ccc(Cl)c(Cl)c3)c([N+](=O)[O-])c2)c1` [C3-082, 3-((4-((3,4-Dichlorophenyl)thio)-3-nitrobenzyl)amino)-4-fluorobenzoic Acid] displayed a melting point of 237 to 239 °C.

Consider `O=C(O)c1ccccc1C(=O)c1ccc(Sc2ccc(Cl)c(Cl)c2)cc1` [C3-083, 2-(4-((3,4-Dichlorophenyl)thio)benzoyl)benzoic Acid], for which the melting point was in the range of 164 to 166 °C. Still for that read-out and setting: next, `O=C(O)c1ccc(Cl)cc1NCc1ccc(Sc2ccc(Cl)c(Cl)c2)c([N+](=O)[O-])c1` [C3-087, 4-Chloro-2-((4-((3,4-dichlorophenyl)thio)-3-nitrobenzyl)amino)benzoic Acid]: 220 to 222 °C; `O=C(O)c1c(Cl)cccc1NCc1ccc(Sc2ccc(Cl)c(Cl)c2)c([N+](=O)[O-])c1` [C3-088, 2-Chloro-6-((4-((3,4-Dichlorophenyl)thio)-3-nitrobenzyl)amino)benzoic Acid]: 204 to 206 °C. Consider `NC(=O)c1ccccc1NCc1ccc(Sc2ccc(Cl)c(Cl)c2)c([N+](=O)[O-])c1` [C3-090, 2-((4-((3,4-Dichlorophenyl)thio)-3-nitrobenzyl)amino)benzamide], for which the melting point is 184 to 186 °C.

Compound `N#Cc1ccccc1NCc1ccc(Sc2ccc(Cl)c(Cl)c2)c([N+](=O)[O-])c1` [C3-091, 2-((4-((3,4-Dichlorophenyl)thio)-3-nitrobenzyl)amino)benzonitrile] returned a melting point of 173 to 175 °C. On the same count and under the same terms, next, `Nc1cc(C(=O)c2ccccc2C(=O)O)ccc1Sc1ccc(Cl)c(Cl)c1` [C3-094, 2-(3-Amino-4-((3,4-dichlorophenyl)thio)benzoyl)benzoic Acid]: 188 to 190 °C; `CN(C)c1cc(C(=O)c2ccccc2C(=O)O)ccc1Sc1ccc(Cl)c(Cl)c1` [C3-095, 2-(4-((3,4-Dichlorophenyl)thio)-3-(dimethylamino)benzoyl)benzoic Acid]: 144 to 146 °C.
